The values that follow come from patent US20250282741A1, “NOVEL BENZOFURANYL HYDROXYPHENYL METHANONE DERIVATIVE COMPOUND OR PHARMACEUTICALLY ACCEPTABLE SALT THEREOF” (INNOVO THERAPEUTICS INC., priority 2021, published 2025).

Broadly, the inhibition is the change of the read-out against control, counted positive when it falls. As a reminder, the pEC50 is the negative decadic logarithm of the EC50, by convention in mol/L.

In one assay the target is HSP47 (Homo sapiens (Human), UniProt P50454). The assay is described as follows: Evaluation of HSP47 activity (inhibition of collagen fibril formation, 340 nm). To be noted: for inhibition at 100 µM: HSP47 inhibition; for pEC50: HSP47 9.45 μg/ml, collagen fibril formation, test compound 100 μM to 1 μM. Format: biochemical. As for the experimental part: Fibrils were formed by adding 180 ul of phosphate-buffered saline (PBS, pH 7.4) solution to 20 ul of collagen dissolved in acidic solution (collagen solution, UK), which was measured at a wavelength of 340 nm. HSP47 (GenScript US) was added at a concentration of 9.45 μg/ml to assess HSP47 activity as the degree to which it inhibits fibril formation. Test compound was added with concentrations of 100 μM to 1 μM and the inhibitory activity of HSP47 was calculated as a percentage or EC50.

A further assay concerns LX-2 cells. The experiment in a line: Sirius red assay, hepatic stellate cell fibrosis (TGF-beta treated LX-2). Format: cell-based. The conditions noted are these: Homo sapiens; for pEC50: LX-2, collagen production, TGF-beta 10 ng/ml, 24 hours; for inhibition at 10 µM: LX-2 cells, collagen production. As for the experimental part: (§1) Liver stellate LX-2 (Elabscience C H), lung epithelial A549 (ATCC US), or skin KEL FIB (ATCC, US) cells were cultured in 24-well tissue culture plates for 18 hours, followed by TGF-beta 10 ng/ml treatment, and then incubated with test compound for 24 hours. Cells were washed with PBS, fixed with Bouin's solution, and washed twice with distilled water. The fixed cells were stained with Sirius red for 2 hours to observe cellular morphological changes, and then washed with 0.01 N HCl solution. Collagen-bound Sirius red was extracted with 0.1 N NaOH solution, which was then quantified at a wavelength of 570 nm. The inhibitory efficacy of each compound on collagen production was shown as a percentage or EC50.

Assay [1] concerns MCP-1 (Monocyte chemoattractant protein-1) secretion. The assay is described as follows: Inhibition of MCP-1 secretion in LX-2 cells (ELISA). To be noted: Homo sapiens, TGF-beta 10 ng/ml, 30 to 1 μM test compound, 24 hours, read-out: LX-2 cell EC50 (MCP-1 secretion). Format: cell-based. As for the experimental part: LX-2 cells, a hepatic stellate cell line, were cultured in 24-well tissue culture plates for 18 hours, followed by TGF-beta 10 ng/ml treatment, and then incubated with 30 to 1 μM of the test compound for 24 hours. The secreted MCP-1 protein in the cell culture medium was quantified using ELISA reagents (RnD, USA). The EC50 value was calculated from the quantitative value of MCP-1 resulting from the treatment of each test compound using prism software (Graphpad, ver 9.4 USA).
Background: An ELISA detects its analyte on a solid surface through an enzyme-linked reagent.

The test system of the next assay is A549 cells. The experiment in a line: Sirius red assay, lung epithelial cell fibrosis (TGF-beta treated A549). It is filed as cell-based. The conditions noted are these: Homo sapiens, collagen production. On the procedure:
as §1

pEC50: −log10 of the molar value.

Sequence of HSP47 (P50454 19-418, species assumed): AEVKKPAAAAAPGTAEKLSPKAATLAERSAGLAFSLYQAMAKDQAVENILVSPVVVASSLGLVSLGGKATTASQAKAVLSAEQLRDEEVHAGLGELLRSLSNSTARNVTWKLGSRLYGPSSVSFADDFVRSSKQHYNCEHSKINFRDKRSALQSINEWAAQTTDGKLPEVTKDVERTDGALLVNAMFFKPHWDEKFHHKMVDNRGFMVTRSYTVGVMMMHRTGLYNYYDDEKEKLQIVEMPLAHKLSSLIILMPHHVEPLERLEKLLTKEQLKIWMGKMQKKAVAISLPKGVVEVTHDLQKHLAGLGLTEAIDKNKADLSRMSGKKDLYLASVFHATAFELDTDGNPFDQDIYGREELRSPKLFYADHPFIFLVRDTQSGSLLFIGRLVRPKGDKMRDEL

On to `Cc1oc2cc(Br)ccc2c1C(=O)c1cc(Br)c(O)c(Br)c1` [Example 17, (6-bromo-2-methylbenzofuran-3-yl)(3,5-dibromo-4-hydroxyphenyl)methanone], for which the inhibition at 100 µM at HSP47 stood at 19.5%. Moreover, the pEC50 (with LX-2 cells; in assay [1]) was 5.43 each time.
For the compound `CCc1oc2c(CC)cccc2c1C(=O)c1cc(Br)c(O)c(Br)c1` [Example 21, (3,5-dibromo-4-hydroxyphenyl)(2,7-diethylbenzofuran-3-yl)methanone], the pEC50 at HSP47 was 5.26; in the assay with LX-2 cells it was 5.51; in assay [1], 5.55.
With `Cc1oc2ccc(Br)cc2c1C(=O)c1cc(Br)c(O)c(Br)c1` [Example 18, (5-bromo-2-methylbenzofuran-3-yl)(3,5-dibromo-4-hydroxyphenyl)methanone], the inhibition at 100 µM against HSP47 was found to be 75.2%. Besides, the pEC50 in the assay with LX-2 cells was 5.33; in assay [1], 5.52.
As for `CCc1oc2cc(C)ccc2c1C(=O)c1cc(I)c(O)c(I)c1` [Example 10, (2-ethyl-6-methylbenzofuran-3-yl)(4-hydroxy-3,5-diiodophenyl)methanone], on HSP47, the inhibition at 100 µM came out at 41.8%. Further, the inhibition at 10 µM in the assay on LX-2 cells worked out at 128%.
`O=C(c1cc(Br)c(O)c(Br)c1)c1coc2ccccc12` [Example 16, benzofuran-3-yl(3,5-dibromo-4-hydroxyphenyl)methanone]: in the assay on A549 cells, the inhibition at 10 µM stood at 64.3%. Besides, on HSP47, the pEC50 was 4.50.
Regarding `CCc1oc2c(C)cccc2c1C(=O)c1cc(I)c(O)c(I)c1` [Example 13, (2-ethyl-7-methylbenzofuran-3-yl)(4-hydroxy-3,5-diiodophenyl)methanone], in the assay on A549 cells, the inhibition at 10 µM was 65.2% and the inhibition at 30 µM was determined as 72.5%. On HSP47, this compound had a pEC50 of 4.31.
On to `CCc1oc2c(C)cccc2c1C(=O)c1cc(Br)c(O)c(Br)c1` [Example 4, (3,5-dibromo-4-hydroxyphenyl)(2-ethyl-7-methylbenzofuran-3-yl)methanone], for which the values for the pEC50 (on HSP47; in the assay on LX-2 cells; in assay [1]) were 4.14, 5.26 and 5.06, respectively.
Take `CCc1oc2cccc(F)c2c1C(=O)c1cc(Br)c(O)c(Br)c1` [Example 24, (3,5-dibromo-4-hydroxyphenyl)(2-ethyl-4-fluorobenzofuran-3-yl)methanone]: the pEC50 at HSP47 is 3.98; with LX-2 cells, 5.44.
For the compound `CCc1ccc2c(C(=O)c3cc(Br)c(O)c(Br)c3)c(CC)oc2c1` [Example 3, (3,5-dibromo-4-hydroxyphenyl)(2,6-diethylbenzofuran-3-yl)methanone], at HSP47, the inhibition at 100 µM amounted to 26.3%. Further, the pEC50 was 5.86 in the assay on LX-2 cells and 5.66 in assay [1].
Turning to `CCc1oc2c(Br)cccc2c1C(=O)c1cc(Br)c(O)c(Br)c1` [Example 6, (7-bromo-2-ethylbenzofuran-3-yl)(3,5-dibromo-4-hydroxyphenyl)methanone], the pEC50 on HSP47 is 4.09; in the assay with LX-2 cells, 4.77; in assay [1] it was 4.99.
For `CCc1oc2c(Cl)cccc2c1C(=O)c1cc(Br)c(O)c(Br)c1` [Example 5, (7-chloro-2-ethylbenzofuran-3-yl)(3,5-dibromo-4-hydroxyphenyl)methanone], in that order: 4.42, 5.33 and 5.45.
In the case of `CCc1oc2c(F)cccc2c1C(=O)c1cc(Br)c(O)c(Br)c1` [Example 7, (3,5-dibromo-4-hydroxyphenyl)(2-ethyl-7-fluorobenzofuran-3-yl)methanone], the inhibition at 100 µM at HSP47 was determined as 18.1%. For the same compound, the pEC50 is 4.96 in the assay on LX-2 cells and 5.55 in assay [1].
Taken in the same sequence, the figures for `CCc1oc2cccc(Cl)c2c1C(=O)c1cc(Br)c(O)c(Br)c1` [Example 1, (4-chloro-2-ethylbenzofuran-3-yl)(3,5-dibromo-4-hydroxyphenyl)methanone] were 23.3%, 5.52 and 5.34.
Turning to `CCc1oc2ccc(C)cc2c1C(=O)c1cc(Br)c(O)c(Br)c1` [Example 2, (3,5-dibromo-4-hydroxyphenyl)(2-ethyl-5-methylbenzofuran-3-yl)methanone], the pEC50 on HSP47 is 4.39. In addition, the inhibition at 10 µM with LX-2 cells amounted to 65.1%.
With `CCc1oc2cccc(C)c2c1C(=O)c1cc(Br)c(O)c(Br)c1` [Example 23, (3,5-dibromo-4-hydroxyphenyl)(2-ethyl-4-methylbenzofuran-3-yl)methanone], the pEC50 at HSP47 was 4.15; in the assay on LX-2 cells, 5.47.
On to `CCc1oc2ccc(C)cc2c1C(=O)c1cc(I)c(O)c(I)c1` [Example 8, (2-ethyl-5-methylbenzofuran-3-yl)(4-hydroxy-3,5-diiodophenyl)methanone], for which the pEC50 at HSP47 was 4.43. Also, the inhibition at 10 µM with LX-2 cells came to 67.9%.
Regarding `CCc1ccc2oc(CC)c(C(=O)c3cc(Br)c(O)c(Br)c3)c2c1` [Example 20, (3,5-dibromo-4-hydroxyphenyl)(2,5-diethylbenzofuran-3-yl)methanone], the values for the pEC50 (on HSP47; in the assay on LX-2 cells; in assay [1]) were 4.31, 5.40 and 5.68, respectively.
On to `CCc1oc2cc(Br)ccc2c1C(=O)c1cc(I)c(O)c(I)c1` [Example 11, (6-bromo-2-ethylbenzofuran-3-yl)(4-hydroxy-3,5-diiodophenyl)methanone], for which the inhibition at 100 µM against HSP47 was determined as 69.2%. In addition, the inhibition at 10 µM with LX-2 cells was 78.3%.
Regarding `CCc1oc2c(Cl)cccc2c1C(=O)c1cc(I)c(O)c(I)c1` [Example 14, (7-chloro-2-ethyl-3-yl)(4-hydroxy-3,5-diiodophenyl)methanone], the inhibition at 10 µM in the assay on LX-2 cells was found to be 90.6%.
Regarding `CCc1oc2c(Br)cccc2c1C(=O)c1cc(I)c(O)c(I)c1` [Example 15, (7-bromo-2-ethylbenzofuran-3-yl)(4-hydroxy-3,5-diiodophenyl)methanone], in the assay on A549 cells, the inhibition at 30 µM was determined as 96.2%. At HSP47, this compound showed a pEC50 of 4.32.
